Reference: patent publication US20100168451A1, “PREPARATIVE METHOD OF DIHYDROCUCURBITACIN F-25-O-ACETATE AND THE USE THEREOF IN THE MANUFACTURE OF MEDICAMENTS FOR TREATING CANCERS” (priority 2007, published 2010)
≈ marks a conversion by molar mass, not a printed value. Like-named read-outs stand apart in the source and are kept apart here.

Assays:
[1] = system: HL60 human leukemia cell strain; assay: modified MTT in vitro screening, HL60; format: cell-based
Text: (§1) 1. Screening research in vitro, employing modified MTT of anticancer substance activity. Cancer Cell Strain: [table]

[2] = system: PC-3 human prostate cancer cell strain; assay: modified MTT in vitro screening, PC-3; format: cell-based
Text: as §1

[3] = system: GLC-15 human lung cancer cell strain; assay: modified MTT in vitro screening, GLC-15; format: cell-based
Text: as §1

[4] = system: A549 human lung cancer cell strain; assay: modified MTT in vitro screening, A549; format: cell-based; conditions: for IC50: A549
Text: as §1

[5] = system: HEP-2 human laryngeal cancer cell strain; assay: modified MTT in vitro screening, HEP-2; format: cell-based
Text: as §1

mouse Lewis lung cancer = assay: curative effect on mouse Lewis lung cancer in vivo
Method: (§2) After inoculating Kunming murine for H22 hepatic cancer and murine Lewis lung cancer, three kinds of preparation, i.e., suspension, emulsion, and lyophilized preparation, are administrated in three different ways of administration comprising gastric perfusion, intraperitoneal injection and intravenous injection, and the administration dose is high, middle and low respectively. Then the curative effect is compared with positive control group and the tumour inhibition efficiency is calculated, and the results are shown as follows: […]

[6] = system: Bel-7402 human hepatic cancer cell strain; assay: modified MTT in vitro screening, Bel-7402; format: cell-based
Text: as §1

[7] = system: SGC-7901 human gastric cancer cell strain; assay: modified MTT in vitro screening, SGC-7901; format: cell-based
Text: as §1

[8] = animal body weight, Lewis lung cancer mice; format: in vivo, mouse
Text: After inoculating Kunming murine for H22 hepatic cancer and murine Lewis lung cancer, three kinds of preparation, i.e., suspension, emulsion, and lyophilized preparation, are administrated in three different ways of administration comprising gastric perfusion, intraperitoneal injection and intravenous injection, and the administration dose is high, middle and low respectively.

mouse H22 liver cancer = assay: curative effect on mouse H22 liver cancer in vivo
Method: as §2

[9] = system: SMMC-7721 human hepatic cancer cell strain; assay: modified MTT in vitro screening, SMMC-7721; format: cell-based
Text: as §1

[10] = mouse, in vivo
Method: as §2

[11] = Homo sapiens, read-out: Ic 50 for the growth of tumour cells
[12] = emulsion, intravenous, 5 mg/kg/d ivx10qd
[13] = emulsion, intravenous, 10 mg/kg/d ivx10qd
[14] = emulsion, intravenous, 15 mg/kg/d ivx10qd
[15] = mouse, in vivo, iv, 5 mg/kg/day
[16] = mouse, in vivo, iv, 10 mg/kg/day
[17] = mouse, in vivo, iv, 15 mg/kg/day
[18] = lyophilized preparation, intravenous, 5 mg/kg/d ivx10qd
[19] = lyophilized preparation, intravenous, 10 mg/kg/d ivx10qd
[20] = lyophilized preparation, intravenous, 15 mg/kg/d ivx10qd
[21] = suspension, gastric perfusion, 30 mg/kg/d igx10qd
[22] = suspension, gastric perfusion, 60 mg/kg/d igx10qd
[23] = suspension, gastric perfusion, 90 mg/kg/d igx10qd
[24] = suspension, intraperitoneal administration (igx10qd), 30 mg/kg/d
[25] = suspension, intraperitoneal administration (igx10qd), 60 mg/kg/d
[26] = suspension, intraperitoneal administration (igx10qd), 90 mg/kg/d
[27] = Table VI, 7 mg/kg/d Ipx2, the first, third days

Question: What does the source list for `CC(=O)OC(C)(C)CCC(=O)[C@](C)(O)[C@H]1[C@H](O)C[C@@]2(C)[C@@H]3CC=C4[C@@H](C[C@H](O)[C@@H](O)C4(C)C)[C@]3(C)C(=O)C[C@]12C` [Curcurbitacin IIa, dihydrocucurbitacin F-25-O-acetate]?
Answer: IC50 ([1]; Homo sapiens, HL-60, read-out: Ic 50 for the growth of tumour cells): 43.2 mg/L (≈ 76.8 µM); IC50 [2, 11]: 10.1 mg/L (≈ 17.9 µM); IC50 [3, 11]: 14.6 mg/L (≈ 25.9 µM); IC50 ([4]; human lung cancer cells, read-out: Ic 50 for growth of the human lung cancer cells): 1.5 mg/L (≈ 2.67 µM); IC50 [4, 11]: 1.5 mg/L (≈ 2.67 µM); IC50 ([5]; Homo sapiens, HEp-2, read-out: Ic 50 for the growth of tumour cells): 15.8 mg/L (≈ 28.1 µM); Inhibition efficiency (mouse Lewis lung cancer; [12]): 40.76; Tumour weight (g) X ± SD (mouse Lewis lung cancer; [12]): 1.69 ± 0.11 g; Inhibition efficiency (mouse Lewis lung cancer; [13]): 47.37; Tumour weight (g) X ± SD (mouse Lewis lung cancer; [13]): 1.50 ± 0.14 g; Inhibition efficiency (mouse Lewis lung cancer; [14]): 59.30; Tumour weight (g) X ± SD (mouse Lewis lung cancer; [14]): 1.16 ± 0.16 g; Tumour weight (g) X ± SD (mouse Lewis lung cancer; lyophilized preparation, 5 mg/kg/d ivx10qd): 1.56 ± 0.14 g; Tumour weight (g) X ± SD (mouse Lewis lung cancer; lyophilized preparation, 10 mg/kg/d ivx10qd): 1.34 ± 0.18 g; Tumour weight (g) X ± SD (mouse Lewis lung cancer; lyophilized preparation, 15 mg/kg/d ivx10qd): 1.20 ± 0.20 g; Inhibition efficiency (mouse Lewis lung cancer; lyophilized preparation, hypodermic inoculation, 5 mg/kg/d ivx10qd): 36.33; Inhibition efficiency (mouse Lewis lung cancer; lyophilized preparation, hypodermic inoculation, 10 mg/kg/d ivx10qd): 45.31; Inhibition efficiency (mouse Lewis lung cancer; lyophilized preparation, hypodermic inoculation, 15 mg/kg/d ivx10qd): 51.20; IC50 [6, 11]: > 100 mg/L; IC50 [7, 11]: 8.71 mg/L (≈ 15.5 µM); Animal body weight (g) Start ([8]; mouse, in vivo, 5 mg/kg/day): 18.1 g; Animal body weight (g) end ([8]; mouse, in vivo, 5 mg/kg/day): 20.5 g; Animal body weight (g) Start ([8]; mouse, in vivo, 10 mg/kg/day): 17.7 g; Animal body weight (g) end ([8]; mouse, in vivo, 10 mg/kg/day): 21.1 g; Animal body weight (g) Start ([8]; mouse, in vivo, 15 mg/kg/day): 18.0 g; Animal body weight (g) end ([8]; mouse, in vivo, 15 mg/kg/day): 20.7 g; Animal body weight (g) Start [8, 15]: 19.3 g; Animal body weight (g) end [8, 15]: 22.4 g; Animal body weight (g) Start [8, 16]: 19.1 g; Animal body weight (g) end [8, 16]: 22.9 g; Animal body weight (g) Start [8, 17]: 19.5 g; Animal body weight (g) end [8, 17]: 22.1 g; Inhibition efficiency (mouse H22 liver cancer; [12]): 32.38; Tumour weight (g) X ± SD (mouse H22 liver cancer; [12]): 2.13 ± 0.20 g; Inhibition efficiency (mouse H22 liver cancer; [13]): 44.12; Tumour weight (g) X ± SD (mouse H22 liver cancer; [13]): 1.76 ± 0.08 g; Inhibition efficiency (mouse H22 liver cancer; [14]): 55.02; Tumour weight (g) X ± SD (mouse H22 liver cancer; [14]): 1.48 ± 0.11 g; Inhibition efficiency (mouse H22 liver cancer; [18]): 31.1; Tumour weight (g) X ± SD (mouse H22 liver cancer; [18]): 2.06 ± 0.18 g; Inhibition efficiency (mouse H22 liver cancer; [19]): 39.13; Tumour weight (g) X ± SD (mouse H22 liver cancer; [19]): 1.82 ± 0.19 g; Inhibition efficiency (mouse H22 liver cancer; [20]): 46.15; Tumour weight (g) X ± SD (mouse H22 liver cancer; [20]): 1.61 ± 0.18 g; Inhibition efficiency (mouse H22 liver cancer; [21]): 27.13; Tumour weight (g) X ± SD (mouse H22 liver cancer; [21]): 2.31 ± 0.21 g; Inhibition efficiency (mouse H22 liver cancer; [22]): 32.09; Tumour weight (g) X ± SD (mouse H22 liver cancer; [22]): 2.14 ± 0.20 g; Inhibition efficiency (mouse H22 liver cancer; [23]): 38.17; Tumour weight (g) X ± SD (mouse H22 liver cancer; [23]): 1.96 ± 0.16 g; Inhibition efficiency (mouse H22 liver cancer; [24]): 36.07; Tumour weight (g) X ± SD (mouse H22 liver cancer; [24]): 1.95 ± 0.12 g; Inhibition efficiency (mouse H22 liver cancer; [25]): 51.05; Tumour weight (g) X ± SD (mouse H22 liver cancer; [25]): 1.49 ± 0.12 g; Inhibition efficiency (mouse H22 liver cancer; [26]): 57.05; Tumour weight (g) X ± SD (mouse H22 liver cancer; [26]): 1.31 ± 0.12 g; IC50 [9, 11]: 22.3 mg/L (≈ 39.6 µM); Animal body weight (g) Start ([10]; 30 mg/kg/day): 19.0 g; Animal body weight (g) end ([10]; 30 mg/kg/day): 26.0 g; Animal body weight (g) Start ([10]; 60 mg/kg/day): 19.3 g; Animal body weight (g) end ([10]; 60 mg/kg/day): 26.3 g; Animal body weight (g) Start ([10]; 90 mg/kg/day): 19.1 g; Animal body weight (g) end ([10]; 90 mg/kg/day): 25.7 g; Animal body weight (g) end ([10]; iv, 10 mg/kg/day): 25.9 g

Question: What does the source list for `N.N.[Cl][Pt][Cl]` [DDP(Cisplatin), Cisplatin, reference compound]?
Answer: Ic 50 for the growth of tumour cells [1]: 0.695 µg/mL; Ic 50 for the growth of tumour cells [2]: 1.85 µg/mL; Ic 50 for the growth of tumour cells [3]: 1.72 µg/mL; Ic 50 for growth of the human lung cancer cells ([4]; human lung cancer cells): 1.6 µg/mL; Ic 50 for the growth of tumour cells ([5]; HEP-2): 0.3 µg/mL; Inhibition efficiency (mouse Lewis lung cancer; [27]): 92.98; Tumour weight (g) X ± SD (mouse Lewis lung cancer; [27]): 0.172 ± 0.06 g; Ic 50 for the growth of tumour cells [6]: 2.31 µg/mL; Ic 50 for the growth of tumour cells [7]: 0.89 µg/mL; Animal body weight (g) end ([8]; Table VI, 7 mg/kg/d Ipx2, the first, third days, end): 18.1 g; Animal body weight (g) Start ([8]; Table VI, 7 mg/kg/d Ipx2, the first, third days, start): 18.4 g; Ic 50 for the growth of tumour cells [9]: 0.21 µg/mL
